Results taken from US8609610B2, “Inhibitors of the trypsin-like site of the proteasome and methods of use thereof” (Trustees of Dartmouth College, priority 2011, dated 2013).

How the values were obtained:
chymotrypsin-like sites = conditions: patients treated with bortezomib, maximal tolerated doses; cited from earlier work
KMS-12-BM cells = test: ALAMAR BLUE cell viability assay; format: cell-based; conditions: viability at 48 h
Method in brief: (§1)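 Myeloma lines were grown in RPMI-1640 with 10% FBS; viability of myeloma cells was read by ALAMAR BLUE mitochondrial dye conversion. PBMNC viability used CELL TITER-GLO ATP luminescence. Caspase-3/7 activity in NCI-H929 and MM1.R was measured with the APO-ONE homogeneous assay.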

NCI-H929 cells = test: ALAMAR BLUE cell viability assay; format: cell-based; conditions: NCI-H929, viability at 48 h
Method in brief: as §1

[1] = tested on: T1, chymotrypsin-like sites (β5) of proteasome in MM cells; test: PROTEASOMEGLO assay of proteasome inhibition in MM cells; format: cell-based; conditions: for Inhibition of chymotrypsin-like sites, 6 h −NC-022 / Inhibition of chymotrypsin-like sites, 6 h +NC-022: washout
T1 construct: other: NCI-H929; bortezomib 100 nM 1 h; bortezomib 11 nM 1 h; bortezomib 3.7 nM 1 h; bortezomib 33 nM 1 h; other: NCI-H9

[2] = target: T2, trypsin-like sites (β2) of proteasome in MM cells (Homo sapiens, UniProt Q99436); test: as above; format: cell-based; conditions: for Inhibition of trypsin-like sites, 6 h +NC-022 / Inhibition of trypsin-like sites, 6 h −NC-022: washout
T2 construct: endogenous in cells; host or cells: NCI-H929, RPMI-8226 and other MM cell lines
T2 sequence (Q99436 44-277): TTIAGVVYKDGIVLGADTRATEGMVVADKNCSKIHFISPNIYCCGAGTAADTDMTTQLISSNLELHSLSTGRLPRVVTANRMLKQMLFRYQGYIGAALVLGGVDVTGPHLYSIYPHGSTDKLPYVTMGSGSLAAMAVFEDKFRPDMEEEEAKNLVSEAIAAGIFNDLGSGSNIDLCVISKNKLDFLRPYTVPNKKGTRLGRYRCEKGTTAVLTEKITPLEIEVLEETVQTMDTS

[3] = tested on: chymotrypsin-like sites (β5) of proteasome in MM cells; test: as above; format: cell-based; conditions: KMS-12-BM, washout
[4] = KMS-12-BM, bortezomib 33.3 nM 1 h
[5] = KMS-12-BM, bortezomib 100 nM 1 h
[6] = KMS-12-BM, bortezomib 300 nM 1 h
[7] = KMS-12-BM, bortezomib 900 nM 1 h
[8] = NCI-H929, bortezomib 3.7 nM 1 h
[9] = NCI-H929, bortezomib 100 nM 1 h

CC(C)C[C@H](NC(=O)[C@H](Cc1ccccc1)NC(=O)c1cnccn1)B(O)O [Bortezomib]
inhibition of the chymotrypsin-like sites in patients (chymotrypsin-like sites): ≤ 70%
Viability +NC-022 (KMS-12-BM cells; bortezomib 33.3 nM 1 h): 72 ± 1 % control
Viability −NC-022 (KMS-12-BM cells; bortezomib 33.3 nM 1 h): 98 ± 13 % control
Viability +NC-022 (KMS-12-BM cells; bortezomib 100 nM 1 h): 42 ± 10 % control
Viability −NC-022 (KMS-12-BM cells; bortezomib 100 nM 1 h): 92 ± 9 % control
Viability +NC-022 (KMS-12-BM cells; bortezomib 300 nM 1 h): 14 ± 11 % control
Viability −NC-022 (KMS-12-BM cells; bortezomib 300 nM 1 h): 66 ± 9 % control
Viability +NC-022 (KMS-12-BM cells; bortezomib 900 nM 1 h): 3.8 ± 2.5 % control
Viability −NC-022 (KMS-12-BM cells; bortezomib 900 nM 1 h): 14 ± 12 % control
Viability +NC-022 (NCI-H929 cells; bortezomib 3.7 nM 1 h): 85 ± 3 % control
Viability −NC-022 (NCI-H929 cells; bortezomib 3.7 nM 1 h): 107 ± 5 % control
Viability +NC-022 (NCI-H929 cells; bortezomib 11 nM 1 h): 65 ± 1 % control
Viability −NC-022 (NCI-H929 cells; bortezomib 11 nM 1 h): 106 ± 2 % control
Viability +NC-022 (NCI-H929 cells; bortezomib 33 nM 1 h): 19 ± 19 % control
Viability −NC-022 (NCI-H929 cells; bortezomib 33 nM 1 h): 53 ± 17 % control
Viability +NC-022 (NCI-H929 cells; bortezomib 100 nM 1 h): 1.9 ± 1.5 % control
Viability −NC-022 (NCI-H929 cells; bortezomib 100 nM 1 h): 2.9 ± 1.5 % control
Inhibition of chymotrypsin-like sites, 1 h [1, 4]: 82 ± 8 % control
Inhibition of chymotrypsin-like sites, 6 h −NC-022 [1, 4]: 56 ± 24 % control
Inhibition of chymotrypsin-like sites, 1 h [1, 5]: 90 ± 6 % control
Inhibition of chymotrypsin-like sites, 6 h −NC-022 [1, 5]: 64 ± 23 % control
Inhibition of chymotrypsin-like sites, 1 h [1, 6]: 93 ± 3 % control
Inhibition of chymotrypsin-like sites, 6 h +NC-022 [1, 6]: 83 ± 6 % control
Inhibition of chymotrypsin-like sites, 6 h −NC-022 [1, 6]: 76 ± 18 % control
Inhibition of chymotrypsin-like sites, 1 h [1, 7]: 93 ± 5 % control
Inhibition of chymotrypsin-like sites, 6 h +NC-022 [1, 7]: 88 ± 5 % control
Inhibition of chymotrypsin-like sites, 6 h −NC-022 [1, 7]: 84 ± 16 % control
Inhibition of chymotrypsin-like sites, 1 h [1, 8]: 9 ± 7 % control
Inhibition of chymotrypsin-like sites, 6 h +NC-022 [1, 8]: 14 ± 13 % control
Inhibition of chymotrypsin-like sites, 6 h −NC-022 [1, 8]: 13 ± 1 % control
Inhibition of chymotrypsin-like sites, 1 h ([1]; NCI-H929, bortezomib 11 nM 1 h): 64 ± 7 % control
Inhibition of chymotrypsin-like sites, 6 h +NC-022 ([1]; NCI-H929, bortezomib 11 nM 1 h): 34 ± 29 % control
Inhibition of chymotrypsin-like sites, 6 h −NC-022 ([1]; NCI-H929, bortezomib 11 nM 1 h): 41 ± 3.5 % control
Inhibition of chymotrypsin-like sites, 1 h ([1]; NCI-H929, bortezomib 33 nM 1 h): 89 ± 2 % control
Inhibition of chymotrypsin-like sites, 6 h +NC-022 ([1]; NCI-H929, bortezomib 33 nM 1 h): 48 ± 35 % control
Inhibition of chymotrypsin-like sites, 6 h −NC-022 ([1]; NCI-H929, bortezomib 33 nM 1 h): 85 ± 4 % control
Inhibition of chymotrypsin-like sites, 1 h [1, 9]: 96 ± 2 % control
Inhibition of chymotrypsin-like sites, 6 h +NC-022 [1, 9]: 93 ± 2 % control
Inhibition of chymotrypsin-like sites, 6 h −NC-022 [1, 9]: 86 ± 1 % control
Inhibition of trypsin-like sites, 1 h [2, 4]: 10 ± 11 % control
Inhibition of trypsin-like sites, 6 h +NC-022 [2, 4]: 92 ± 0 % control
Inhibition of trypsin-like sites, 6 h −NC-022 [2, 4]: 8 ± 15 % control
Inhibition of trypsin-like sites, 1 h [2, 5]: 19 ± 3 % control
Inhibition of trypsin-like sites, 6 h +NC-022 [2, 5]: 92 ± 1 % control
Inhibition of trypsin-like sites, 6 h −NC-022 [2, 5]: 15 ± 11 % control
Inhibition of trypsin-like sites, 1 h [2, 6]: 22 ± 12 % control
Inhibition of trypsin-like sites, 6 h +NC-022 [2, 6]: 91 ± 2 % control
Inhibition of trypsin-like sites, 6 h −NC-022 [2, 6]: 24 ± 18 % control
Inhibition of trypsin-like sites, 1 h [2, 7]: 28 ± 5 % control
Inhibition of trypsin-like sites, 6 h +NC-022 [2, 7]: 93 ± 1 % control
Inhibition of trypsin-like sites, 6 h −NC-022 [2, 7]: 26 ± 19 % control
Inhibition of trypsin-like sites, 1 h [2, 8]: 0 ± 7 % control
Inhibition of trypsin-like sites, 6 h +NC-022 [2, 8]: 93 ± 2 % control
Inhibition of trypsin-like sites, 6 h −NC-022 [2, 8]: 6 ± 4 % control
Inhibition of trypsin-like sites, 1 h ([2]; NCI-H929, bortezomib 11 nM 1 h): 8 ± 11 % control
Inhibition of trypsin-like sites, 6 h +NC-022 ([2]; NCI-H929, bortezomib 11 nM 1 h): 93 ± 2 % control
Inhibition of trypsin-like sites, 6 h −NC-022 ([2]; NCI-H929, bortezomib 11 nM 1 h): 14 ± 2 % control
Inhibition of trypsin-like sites, 1 h ([2]; NCI-H929, bortezomib 33 nM 1 h): 26 ± 15 % control
Inhibition of trypsin-like sites, 6 h +NC-022 ([2]; NCI-H929, bortezomib 33 nM 1 h): 94 ± 1 % control
Inhibition of trypsin-like sites, 6 h −NC-022 ([2]; NCI-H929, bortezomib 33 nM 1 h): 31 ± 0 % control
Inhibition of trypsin-like sites, 1 h [2, 9]: 36 ± 17 % control
Inhibition of trypsin-like sites, 6 h +NC-022 [2, 9]: 96 ± 1 % control
Inhibition of trypsin-like sites, 6 h −NC-022 [2, 9]: 45 ± 2 % control
Inhibition of chymotrypsin-like sites, 6 h +NC-022 ([3]; bortezomib 33.3 nM 1 h): 62 ± 7 % control
Inhibition of chymotrypsin-like sites, 6 h +NC-022 ([3]; bortezomib 100 nM 1 h): 75 ± 6 % control
